{
  "source": "paper PMC5711494",
  "about": "“Sterol methyltransferase a target for anti-amoeba therapy: towards transition state analog and suicide substrate drug design” (Journal of Lipid Research, 2017)",
  "key": {"[1]": {"tested_on": "Acanthamoeba castellanii trophozoites sterol biosynthesis", "assay": "Sterol composition of treated Ac trophozoites (GC/MS)", "format": "cell-based", "details": "15 µM, 24 h", "description": "Amoeba and HEK cells were harvested at one or more points during growth in the presence and absence of steroidal inhibitor and azole at IC50 or MACs of the inhibitor or at 40 µM for HEK cells. Cell pellets were split with an internal standard of known amounts of 5α-cholestane added to one of the cell pellets for determination of sterol amounts in cells. Cells were saponified directly in aqueous methanolic potassium hydroxide at the reflux temperature for 1 h, which yielded total sterol (free plus sterol released from ester bonds). The resulting neutral lipids obtained by dilution with water and extraction with hexane (Fisher) were analyzed by GC/MS or HPLC-equipped with a diode array detector against cholesterol as a chromatographic reference. GC and HPLC retention times of sterols were compared with those obtained from authentic standards in our steroid collection ([18]–[22]). To determine the trophozoite sterol metabolome, GC/MS analysis of cell pellet nonsaponfiables was typically carried out using control cultures incubated in 5 ml medium in 25 ml T-flasks inoculated with 1 × 10^4 trophozoites/ml and cultured for 72 h. To generate significant cell pellets for sterol analysis of treated cells, trophozoites were cultured in 10 ml medium in 25 ml T-flasks inoculated with 1 × 10^5 cells/ml and grown for 48 h."}, "[2]": {"tested_on": "Ac24-SMT", "assay": "Substrate kinetics and product analysis with recombinant Ac24-SMT", "format": "biochemical, Acanthamoeba castellanii", "description": "The SMT constructs were transformed into competent BL21(DE3) cells and transformants selected against 100 µg/ml ampicillin. Expression of the SMT constructs and partial purification of the recombinant proteins followed the procedure described previously ([19]). […] In one tube, cells were induced by addition of isopropyl thio-galactoside at a final concentration of 1 mM and in the other tube, were un-induced. Cells were harvested 2 and 4 h after induction and an equal number of cells (as calculated by OD @600 nm) from induced (+) and un-induced (−) cultures were boiled with 1X Laemmli’s buffer and analyzed by SDS-PAGE (12%). Gel was stained with Coomassie Brilliant Blue (0.2%) to establish the molecular weight and purity of the expressed protein. Total protein concentrations were determined by Bradford dye-binding procedure with bovine γ-globulin as standard. To determine the catalytic activity of the recombinant proteins, enzyme assays were carried out using soluble bacterial extract (100,000 g fraction) in 9 ml test tubes containing a total of 600 µl assay volume for 45 min (initial velocity conditions). The assay buffer contained 20 mM phosphate buffer in 5% (v/v) glycerol at pH 7.5, sterol acceptor emulsified in 12 µl Tween 80 (1.2 g/l), and the substrate tested over the concentration range 5 to 150 µM against 1.2 mg of total protein. The reaction was initiated by the addition of saturating levels of [methyl-^3H3]SAM, 0.9 µCi, at 150 µM. Incubation mixtures were saponified with methanolic potassium hydroxide and extracted with hexane (3 × 1 ml) and concentrated to dryness providing the nonsaponifiable lipid fraction; radioactivity was determined by liquid scintillation counting. […]"}, "[3]": {"tested_on": "Ac24-SMT", "assay": "Time-dependent inactivation of Ac24-SMT (Kitz and Wilson plot)", "format": "biochemical, Acanthamoeba castellanii", "description": "To show time-dependent inactivation, experiments were performed with a 100,000 g supernatant fraction containing the recombinant Ac24-SMT in two major steps. First, a preincubation experiment was established; to a 9 ml test tube containing DHL at the test concentrations (varied between 0 and 20 µM), 2.4 mg of total protein (ca. 160 µg SMT), 1.5 ml buffer, and a fixed concentration of SAM (100 µM) were added. The incubation was allowed to incubate for up to 20 min at 35°C. Second, at the time indicated, aliquots (20 µl) of the preincubation preparation were placed in a precooled (dry ice-ethanol) test tube to prevent catalysis. The frozen samples were then individually thawed and filtered three times with phosphate buffer to remove excess unbound inhibitor using Amicon ultracentrifugation filters. The remaining enzyme activity in each sample was determined by assaying each at saturating cycloartenol concentration (100 µM) and [methyl-^3H3] SAM (100 µM; 0.6 µC) under standard assay conditions for 1 h. The logarithmic percentage of remaining enzyme activity was plotted against the incubation time of the enzyme-inhibitor mixture to determine the half-life (T1/2) of inactivation. […] The point of intersection with the ordinate is the T1/2 at saturation from which the kinact can be calculated whereas the intercept along the X-axis gives the −1/Ki from which the Ki can be calculated."}},
  "data": [
    {"smiles": "CC(CCC=C1CC1)C1CC[C@@]2(C)C3=C(CCC12C)C1(C)CCC(O)C(C)(C)C1CC3", "note": "(stereo partly shown) [DHL, 26,27-dehydrolanosterol]", "values": [
      {"measurement": "effect on sterol composition", "setting": "[1]", "result": "minimal effect"},
      {"measurement": "difference in catalytic competence (kcat/Km) from the natural substrate of 24-SMT", "setting": "[2]", "result": "greater than 10 fold"},
      {"measurement": "conversion by Ac24-SMT to product P1 (C26-monol)", "setting": "[2]; GC/MS, saturating cosubstrates", "result": 3, "unit": "%"},
      {"measurement": "conversion by Ac24-SMT to product P2 (C26-diol)", "setting": "[2]; GC/MS, saturating cosubstrates", "result": 1, "unit": "%"},
      {"measurement": "Km (Michaelis / binding constant) as substrate of Ac24-SMT", "setting": "[2]; saturating SAM 150 µM, initial velocity conditions", "result": "~33", "unit": "µM"},
      {"measurement": "partition ratio (kcat/kinact)", "setting": "[3]; C26 methyl monol product per inactivation event, 24-SMT", "result": "~1"},
      {"measurement": "kinact (maximum rate of inactivation) of Ac24-SMT", "setting": "[3]; preincubation with SAM 100 µM, 35°C", "result": "~0.4", "unit": "min⁻¹"}
    ]}
  ]
}
